Converted amounts (≈) assume the structure as drawn.
What was measured:
[1] = test system: several strains of Prototheca wickerhamii and Prototheca zopfii; settings: previous study on susceptibility, Non-Patent Document 1; cited from earlier work
[2] = when administered to humans; cited from earlier work
Prototheca blaskeae = assay: Broth microdilution MIC assay, CLSI M27-A3 guideline; format: cell-based; settings: strain NUBS19005, bovine protothecal mastitis; 32 degrees, 72 hours
Protocol: (§1) For Prototheca wickerhamii, isolates (1 cat strain and 2 dog strains) were obtained from dogs and cats suffering from a prototheca disease. For Prototheca zopfii, bovine prototheca mastitis isolates (Genotype 2, 10 strains) and environmental isolates (Genotype 1, 10 strains) were obtained. For Prototheca blaskeae, a prototheca mastitis isolate (1 strain) was obtained. For Prototheca zopfii, the drug susceptibility was tested also on Genotype 1 established strain (SAG20063^T) and Genotype 2 established strain (SAG2021^T).
(§2) The isolates were maintained on Yeast Extract-Peptone-Dextrose agar (YPD: 1% yeast extract, 2% peptone, 2% dextrose, 2% agar) and tested for antifungal susceptibility. The susceptibility of the isolates to the antifungal agents itraconazole (ITZ, Merck KGA) and ravuconazole (RVZ, selenium pharma) was measured using a trace liquid dilution method (broth microdilution assay) according to the CLSI M27-A3 guideline. The minimum inhibitory concentration (MIC) was measured after culturing at 32 degrees for 72 hours. MIC was defined as the lowest concentration that induces significant inhibition of growth (inhibition of about 50% or more). As a control, Candida parapsilosis ATCC 22019 obtained from ATCC was used, and the MIC assay of the CLSI M27-A3 test was performed.

Prototheca wickerhamii = assay: as above; format: cell-based; settings: for MICs: 32 degrees, 72 hours
Protocol: as §1, §2

[3] = test system: Prototheca zopfii Genotype 1; assay: as above; format: cell-based; settings: for MICs: 32 degrees, 72 hours
Protocol: as §1, §2

[4] = test system: Prototheca zopfii Genotype 2; assay: as above; format: cell-based; settings: 32 degrees, 72 hours
Protocol: as §1, §2

[5] = test system: Candida parapsilosis ATCC 22019; assay: MIC assay of the CLSI M27-A3 test, control strain; format: cell-based
Protocol: as §2

prototheca species = assay: Overall comparison of anti-algae effect against prototheca species; format: cell-based
Protocol: as §2

[6] = strain NUBS19001, feline protothecosis
[7] = strain NUBS19002, canine protothecosis
[8] = strain NUBS19003, canine protothecosis
[9] = strain NUBS19004, environment (GT1)
[10] = strain SAG2063T, type strain of (GT1)
[11] = strain A7, bovine protothecal mastitis (GT2)
[12] = strain A8, bovine protothecal mastitis (GT2)
[13] = strain A9, bovine protothecal mastitis (GT2)
[14] = strain A10, bovine protothecal mastitis (GT2)
[15] = strain A11, bovine protothecal mastitis (GT2)
[16] = strain A13, bovine protothecal mastitis (GT2)
[17] = strain A14, bovine protothecal mastitis (GT2)
[18] = strain A15, bovine protothecal mastitis (GT2)
[19] = strain A16, bovine protothecal mastitis (GT2)
[20] = strain A17, bovine protothecal mastitis (GT2)
[21] = strain SAG2021T, type strain of GT2

In the case of `C[C@@H]1[C@H](O)[C@@H](C)/C=C/C=C/C=C/C=C/C=C/C=C/C=C/[C@H](O[C@@H]2O[C@H](C)[C@@H](O)[C@H](N)[C@@H]2O)C[C@@H]2O[C@](O)(C[C@@H](O)C[C@@H](O)[C@H](O)CC[C@@H](O)C[C@@H](O)CC(=O)O[C@H]1C)C[C@H](O)[C@H]2C(=O)O` [AMB, amphotericin B], the “effectiveness against several strains of Prototheca wickerhamii and Prototheca zopfii” value [1] is given as “not effective”.
In the case of `C[C@@H](c1nc(-c2ccc(C#N)cc2)cs1)[C@@](Cn1cncn1)(OCOP(=O)(O)O)c1ccc(F)cc1F` [Fosravuconazole, fosravuconazole], the “conversion of prodrug to ravuconazole” value [2] is listed as “rapidly converted to ravuconazole”.
With `CCC(C)n1ncn(-c2ccc(N3CCN(c4ccc(OCC5COC(Cn6cncn6)(c6ccc(Cl)cc6Cl)O5)cc4)CC3)cc2)c1=O` (stereo not shown) [ITZ, itraconazole] the MICs (Prototheca blaskeae) was 32 mg/L, the MICs (Prototheca wickerhamii; [6]) was greater than 32 mg/L and the MICs (Prototheca wickerhamii; [7]) was greater than 32 mg/L. It also gave an MICs (Prototheca wickerhamii; [8]) of 4 mg/L, an MICs ([3]; strain I1, environment (GT1)) of 2 mg/L and an MICs ([3]; strain I3, environment (GT1)) of 0.25 mg/L. It also gave an MICs [3, 9] of 1 mg/L, an MICs ([3]; strain S2, environment (GT1)) of 32 mg/L and an MICs ([3]; strain S3, environment (GT1)) of 8 mg/L. It also gave an MICs ([3]; strain S29, environment (GT1)) greater than 32 mg/L, an MICs ([3]; strain S36, environment (GT1)) of 16 mg/L and an MICs ([3]; strain S42, environment (GT1)) of 8 mg/L. It also gave an MICs [3, 10] of 1.5 mg/L, an MICs ([3]; strain W3, environment (GT1)) of 4 mg/L and an MICs ([3]; strain W20, environment (GT1)) of 4 mg/L. The MICs [4, 11] was 32 mg/L, the MICs [4, 12] was 4 mg/L and the MICs [4, 13] was greater than 32 mg/L. For the same compound, the MICs [4, 14] was greater than 32 mg/L, the MICs [4, 15] was greater than 32 mg/L and the MICs [4, 16] was greater than 32 mg/L. It also gave an MICs [4, 17] greater than 32 mg/L, an MICs [4, 18] greater than 32 mg/L and an MICs [4, 19] of 8 mg/L. The MICs [4, 20] was 4 mg/L, the MICs [4, 21] was greater than 32 mg/L and the MIC ([5]; Lodderomyces parapsilosis, ATCC22019) was 0.125 µg/mL (≈ 0.177 µM).
For gentamicin, the “effectiveness against several strains of Prototheca wickerhamii and Prototheca zopfii” value [1] is listed as “not effective”.
ravuconazole [RVZ] gave an MICs (Prototheca blaskeae) of 0.03 mg/L, an MICs (Prototheca wickerhamii; [6]) of 0.03 mg/L and an MICs (Prototheca wickerhamii; [7]) of 0.03 mg/L. For the same compound, the MICs (Prototheca wickerhamii; [8]) was 0.03 mg/L, the “MIC of the three clinical isolates of Prototheca wickerhamii” value (Prototheca wickerhamii; summary over three clinical isolates) was 0.03 mg/L and the MICs ([3]; strain I1, environment (GT1)) was 0.03 mg/L. For the same compound, the MICs ([3]; strain I3, environment (GT1)) was 0.03 mg/L, the MICs [3, 9] was 0.03 mg/L and the MICs ([3]; strain S2, environment (GT1)) was 0.03 mg/L. It also gave an MICs ([3]; strain S3, environment (GT1)) of 0.03 mg/L, an MICs ([3]; strain S29, environment (GT1)) of 0.03 mg/L and an MICs ([3]; strain S36, environment (GT1)) of 0.03 mg/L. For the same compound, the MICs ([3]; strain S42, environment (GT1)) was 0.03 mg/L, the MICs [3, 10] was 0.03 mg/L and the MICs ([3]; strain W3, environment (GT1)) was 0.03 mg/L. The MICs ([3]; strain W20, environment (GT1)) was 0.03 mg/L, the “MIC of 11 isolates of Genotype 1 of Prototheca zopfii” value ([3]; summary over 11 isolates of Genotype 1) was 0.03 mg/L and the MICs [4, 11] was 0.125 mg/L. The MICs [4, 12] was 0.03 mg/L, the MICs [4, 13] was 0.03 mg/L and the MICs [4, 14] was 0.03 mg/L. The MICs [4, 15] was 0.25 mg/L, the MICs [4, 16] was 0.125 mg/L and the MICs [4, 17] was 0.03 mg/L. It also gave an MICs [4, 18] of 0.0625 mg/L, an MICs [4, 19] of 0.03 mg/L and an MICs [4, 20] of 0.25 mg/L. The MICs [4, 21] was 0.125 mg/L, the “MIC for the control strain Candida parapsilosis ATCC 22019” value [5] was 0.03 mg/L and the “effectiveness (anti-algae effect) compared with itraconazole against pathogen of prototheca species” value (prototheca species; versus itraconazole) was “more effective”. The “activity compared with publicly known results of kanamycin, gentamicin, amphotericin B and itraconazole against prototheca species” value (prototheca species; versus publicly known results of KM, GM, AMB, ITZ) was “stronger activity”.

Source: patent publication US12508248B2, “Therapeutic agent for prototheca disease” (priority 2019, dated 2025)
